Columns and labels:
CHK1 kinase = target: T1, CHK1 kinase (Homo sapiens, UniProt O14757); experiment: CHK1 kinase inhibition, ADP-Glo kinase assay; assay type: biochemical; details: ATP 10 μM, CHK1 1 ng/well; for inhibition at 0.01 µM: compound concentration 10 nM, read-out: Inh % (inhibitory effect on CHK1 kinase activity); for IC50: read-out: IC50 (inhibitory effect on CHK1 kinase activity)
T1 construct: purchased Promega V1941
T1 sequence (O14757 1-476): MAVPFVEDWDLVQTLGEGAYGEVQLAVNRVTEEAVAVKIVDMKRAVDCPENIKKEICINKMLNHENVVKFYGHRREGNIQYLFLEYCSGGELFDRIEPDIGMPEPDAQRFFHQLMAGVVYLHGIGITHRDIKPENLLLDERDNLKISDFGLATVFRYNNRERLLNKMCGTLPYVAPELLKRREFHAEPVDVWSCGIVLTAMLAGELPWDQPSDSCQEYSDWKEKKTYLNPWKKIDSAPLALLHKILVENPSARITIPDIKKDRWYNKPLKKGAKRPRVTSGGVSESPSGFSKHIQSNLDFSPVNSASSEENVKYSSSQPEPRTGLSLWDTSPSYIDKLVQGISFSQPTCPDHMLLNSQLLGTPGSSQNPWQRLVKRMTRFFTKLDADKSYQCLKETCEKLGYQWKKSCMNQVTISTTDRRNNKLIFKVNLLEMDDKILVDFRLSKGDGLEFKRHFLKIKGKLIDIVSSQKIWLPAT
Protocol: 2 μL of kinase CHK1 (#V1941, Promega), 1 μL of compound diluted with buffer, and 2 μL of ATP substrate was successively added to a 384-well plate (final concentration of CHK1 was 1 ng/well, ATP was 10 μM). The positive control wells contained CHK1, ATP and DMSO whereas the negative control wells contained ATP, DMSO without enzyme. The mixtures were centrifuged at 1000 rpm for 1 minute and kept in darkness at room temperature for 1 hour to react. Then, 5 μL of ADP-Glo reagent was added to each well and incubated at room temperature for 40 minutes. At the end of incubation, 10 μL of kinase detection reagent was added to each well, and the relative chemiluminescence values (RLU) were measured on Varioskan® Flash (Thermo). The following calculation was performed: Inhibition rate %=(RLU of positive control−RLU of compound)/(RLU of positive control−RLU of negative control)×100. Data were analyzed using GraphPad Prism6.0 and fitted using the curve equation: Y=Bottom+(Top-Bottom)/(1+10^((Log IC50−X)*HillSlope)), and IC50 values were calculated.

[1] = system: human breast cancer cell HCC1806; experiment: Proliferation of HCC1806 cells, MTT assay; assay type: cell-based; details: HCC1806, 72 h, 3 days treatment, read-out: IC50 (inhibition of proliferation of HCC1806)
Protocol: Newly revived HCC1806 cells (purchased from Guangzhou Genio) were cultured and passaged for at least three generations before use. Cells were used at 90% confluency for experiments. Cells were digested with trypsinase and centrifuged at 800 rpm for 5 minutes. The cell pellets were resuspended in fresh RPMI1640 medium and cells were counted. Cells were seeded on 96-well cell culture plates at 2000 cells/well and incubated overnight at 37° C., 5% CO2. The stock solutions of the test substances (including the test compounds and the reference compound) were serially diluted to 8 concentrations with DMSO at a ratio of 1:3. Five μL of each of the serially diluted solutions were added to 120 μL of medium (diluted by 25 times) and mixed by shaking. […] The cell culture plates were returned to incubator at 37° C., 5% CO2 for 3 days. At the end of treatment the cell viability was determined by MTT colorimetric assay. Cell culture medium in each well was replaced by 100 μL/well of serum-free fresh medium containing MTT (0.5 mg/mL), and the culture was continued for additional 4 hours.
(§1) Data was analyzed by GraphPad Prism 6.0. The inhibitory effects of compounds on cell proliferation were plotted based on cell viability vs. the logarithm of compound concentration. Cell viability %=(ODcompound−ODbackground)/(ODDMSO−ODbackground)×100.

[2] = system: human pancreatic cancer cell SW1990; experiment: Proliferation of SW1990 cells, MTT assay; assay type: cell-based; details: SW1990, 120 h, 5 days treatment, read-out: IC50 (inhibition of proliferation of SW1990)
Protocol: Newly revived SW1990 cells (purchased from Shanghai Fuheng Biology) were cultured and passaged for at least three generations before use. Cells were used at about 90% confluency for experiments. Cells were digested with trypsinase and centrifuged at 800 rpm for 5 minutes. The cell pellets were resuspended in fresh DMEM medium and cells were counted. Cells were seeded on 96-well cell culture plates at 5000 cells/well and incubated overnight at 37° C., 5% CO2. The stock solutions of the test substances (including the test compounds and the reference compound) were serially diluted to 8 concentrations with DMSO at a ratio of 1:3. 5 μL of each serially diluted solutions was added to 120 μL of medium (diluted by 25 times) and mixed by shaking. […] The cell culture plates were returned to incubator at 37° C. and 5% CO2 for 5 days. At the end of the treatment the cell viability was determined by MTT colorimetric assay. Cell culture medium in each well was replaced by 100 μL/well of serum-free fresh medium containing MTT (0.5 mg/mL), and the culture was continued for additional 4 hours. Medium was then discarded and 100 μL/well of DMSO was added.
as §1

[3] = system: human colon cancer cell LoVo; experiment: Proliferation of LoVo cells, MTT assay; assay type: cell-based; details: 96 h, 4 days treatment, read-out: IC50 (inhibition of proliferation of LoVo)
Protocol: Newly revived LoVo cells (purchased from Shanghai Cell Institute) were cultured and passaged for at least three generations before use. Cells were used at 90% confluence for experiment. Cells were digested with trypsinase and centrifuged at 800 rpm for 5 minutes and the supernatant was discarded. The cell pellets were resuspended in fresh RPMI1640 medium and counted. Cells were seeded on 96-well cell culture plates at 5000 cells/well and incubated overnight at 37° C., 5% CO2. The stock solutions of the test substances (including the test compounds and the reference compound) were serially diluted to 8 concentrations with DMSO at a ratio of 1:3. 5 μL of each series diluted solutions was added to 120 μL of medium (diluted by 25 times) and mixed by shaking. […] The cell culture plates were returned to incubator at 37° C. and 5% CO2 for 4 days. At the end of treatment, the cell viability was determined by MTT colorimetric assay. Cell culture medium in each well was replaced by 100 μL/well of serum-free DMEM medium containing MTT (0.5 mg/mL), and the culture was continued for additional 4 hours. Medium was then discarded and 100 μL/well of DMSO was added.
as §1

Row | SMILES | inhibition at 0.01 µM (CHK1 kinase) [%] | IC50 [1] [nM] | IC50 [2] [nM] | IC50 (CHK1 kinase) [nM] | IC50 [3] [nM]
1 | COc1cccc(OC[C@@H]2CNCCO2)c1-c1cc(Nc2ccc(C#N)nc2)n[nH]1 [Example 2, (S)-5-((5-(2-methoxy-6-(morpholin-2-ylmethoxy)phenyl)-1H-pyrazol-3-yl)amino)picolinonitrile] | 85 | 153 | 84.9 |  | 
2 | COc1cccc(OC[C@H]2CNCCO2)c1-c1cc(Nc2cnc(C#N)cn2)n[nH]1 [Example 3, (R)-5-((5-(2-methoxy-6-(morpholin-2-ylmethoxy)phenyl)-1H-pyrazol-3-yl)amino)pyrazine-2-carbonitrile] | 79 | 94.2 | 50.7 |  | 
3 | COc1cccc(OC[C@@H]2CN(C)CCO2)c1-c1cc(Nc2cnc(C#N)cn2)n[nH]1 [Example 4, (S)-5-((5-(2-methoxy-6-((4-methylmorpholin-2-yl)methoxy)phenyl)-1H-pyrazol-3-yl)amino)pyrazine-2-carbonitrile] | 82 | 139 | 123 |  | 
4 | N#Cc1cnc(Nc2cc(-c3c(F)cccc3OC[C@H]3CCNC3)[nH]n2)cn1 [Example 54, (S)-5-((5-(2-fluoro-6-(pyrrolidin-3-ylmethoxy)phenyl)-1H-pyrazol-3-yl)amino)pyrazine-2-carbonitrile] |  | 30.7 |  | 0.86 | 16.2
5 | N#Cc1cnc(Nc2cc(-c3c(F)cccc3OC[C@@H]3CNCCO3)[nH]n2)cn1 [Example 55, (S)-5-((5-(2-fluoro-6-(morpholin-2-ylmethoxy)phenyl)-1H-pyrazol-3-yl)amino)pyrazine-2-carbonitrile] | 82 | 315 |  |  | 153
6 | N#Cc1cnc(Nc2cc(-c3c(F)cc(F)cc3OC[C@H]3CCCNC3)[nH]n2)cn1 [Example 56, (S)-5-((5-(2,4-difluoro-6-(piperidin-3-ylmethoxy)phenyl)-1H-pyrazol-3-yl)amino)pyrazine-2-carbonitrile] |  | 27.4 |  | 1.02 | 22.3
7 | N#Cc1cnc(Nc2cc(-c3c(F)cc(Cl)cc3OC[C@H]3CCCNC3)[nH]n2)cn1 [Example 57, (S)-5-((5-(4-chloro-2-fluoro-6-(piperidin-3-ylmethoxy)phenyl)-1H-pyrazol-3-yl)amino)pyrazine-2-carbonitrile] | 92 | 170 |  |  | 106
8 | N#Cc1cnc(Nc2cc(-c3c(F)cc(Br)cc3OC[C@H]3CCCNC3)[nH]n2)cn1 [Example 59, (S)-5-((5-(4-bromo-2-fluoro-6-(piperidin-3-ylmethoxy)phenyl)-1H-pyrazol-3-yl)amino)pyrazine-2-carbonitrile] |  | 60 |  | 2.27 | 60.8
9 | Cc1cc(F)c(-c2cc(Nc3cnc(C#N)cn3)n[nH]2)c(OC[C@H]2CCNC2)c1 [Example 62, (S)-5-((5-(2-fluoro-4-methyl-6-(pyrrolidin-3-ylmethoxy)phenyl)-1H-pyrazol-3-yl)amino)pyrazine-2-carbonitrile] |  | 21.6 |  | 1.58 | 18
10 | Cc1cc(F)c(-c2cc(Nc3cnc(C#N)cn3)n[nH]2)c(OC[C@H]2CCCNC2)c1 [Example 63, (S)-5-((5-(2-fluoro-4-methyl-6-(piperidin-3-ylmethoxy)phenyl)-1H-pyrazol-3-yl)amino)pyrazine-2-carbonitrile] |  | 52.6 |  | 1.66 | 40.2
11 | COc1cccc(OC[C@H]2CCCN2)c1-c1cc(Nc2cnc(C#N)cn2)n[nH]1 [Example 65, (R)-5-((5-(2-methoxy-6-(pyrrolidin-2-ylmethoxy)phenyl)-1H-pyrazol-3-yl)amino)pyrazine-2-carbonitrile] |  | 11.9 |  | 0.26 | 7.3
12 | COc1cc(F)cc(OC[C@H]2CCCN2)c1-c1cc(Nc2cnc(C#N)cn2)n[nH]1 [Example 66, (R)-5-((5-(4-fluoro-2-methoxy-6-(pyrrolidin-2-ylmethoxy)phenyl)-1H-pyrazol-3-yl)amino)pyrazine-2-carbonitrile] |  | 26.5 |  | 1.22 | 14.3
13 | COc1cc(Cl)cc(OCC2CNC2)c1-c1cc(Nc2cnc(C#N)cn2)n[nH]1 [Example 67, 5-((5-(2-(azetidin-3-ylmethoxy)-4-chloro-6-methoxyphenyl)-1H-pyrazol-3-yl)amino)pyrazine-2-carbonitrile] |  | 8.7 |  | 1.72 | 9.1
14 | COc1cc(Cl)cc(OC[C@H]2CCNC2)c1-c1cc(Nc2cnc(C#N)cn2)n[nH]1 [Example 68, (S)-5-((5-(4-chloro-2-methoxy-6-(pyrrolidin-3-ylmethoxy)phenyl)-1H-pyrazol-3-yl)amino)pyrazine-2-carbonitrile] |  | 2.8 |  | 0.44 | 2.3
15 | COc1cc(Br)cc(OC[C@H]2CCNC2)c1-c1cc(Nc2cnc(C#N)cn2)n[nH]1 [Example 70, (S)-5-((5-(4-bromo-2-methoxy-6-(pyrrolidin-3-ylmethoxy)phenyl)-1H-pyrazol-3-yl)amino)pyrazine-2-carbonitrile] |  | 4.9 |  | 1.16 | 3.6
16 | COc1cccc(OC[C@@H]2CNCCS2)c1-c1cc(Nc2cnc(C#N)cn2)n[nH]1 [Example 76-A, (S)-5-((5-(2-methoxy-6-(thiomorpholin-2-ylmethoxy)phenyl)-1H-pyrazol-3-yl)amino)pyrazine-2-carbonitrile] |  | 1.4 |  | 0.79 | 2.1
17 | COc1cccc(OC[C@H]2CNCCS2)c1-c1cc(Nc2cnc(C#N)cn2)n[nH]1 [Example 76-B, (R)-5-((5-(2-methoxy-6-(thiomorpholin-2-ylmethoxy)phenyl)-1H-pyrazol-3-yl)amino)pyrazine-2-carbonitrile] |  | 18.5 |  | 1.21 | 17.8
